Holding throughout (type): functional
For experiment [1], the system named is INS1. In words: Hypoglycemic activity in Rattus norvegicus (rat) INS1 cells assessed as glucose-mediated insulin release after 90 min (reference value: 62.96 +/- 5.68 to 69.70 +/- 4.98 %).
Experiment [2] relates to INS1. In words: Hypoglycemic activity in Rattus norvegicus (rat) INS1 cells assessed as insulin release at 5.6 mmol/l after 90 min (reference value: 62.96 +/- 5.68 to 69.70 +/- 4.98 %).
The test system of experiment [3] is INS1. The experiment in a line: Hypoglycemic activity in Rattus norvegicus (rat) INS1 cells assessed as glucose-mediated insulin release at 1 ug/ml after 90 min (reference value: 62.96 +/- 5.68 to 69.70 +/- 4.98 %).
The subject of experiment [4] is INS1. In words: Hypoglycemic activity in Rattus norvegicus (rat) INS1 cells assessed as glucose-mediated insulin release at 10 umol/l after 90 min (reference value: 62.96 +/- 5.68 to 69.70 +/- 4.98 %).

As to `O=C1NC(=S)N/C1=C\c1ccc(-c2cc(=O)c3ccccc3o2)cc1`, the Activity in the experiment with INS1 [1] came to 130.3%. Same read-out and setting: the result for `CN1C(=O)/C(=C/c2ccc(-c3cc(=O)c4ccccc4o3)cc2)N(C)C1=S` reads 114.3%; that for `CCN1C(=O)/C(=C/c2ccc(-c3cc(=O)c4ccccc4o3)cc2)N(CC)C1=S`, 96.27%; that for `O=C1NC(=O)C(Cc2cccc(-c3cc(=O)c4ccccc4o3)c2)S1` (stereo not drawn), 69.89%. `O=C1NC(=O)/C(=C\c2cccc(-c3cc(=O)c4ccccc4o3)c2)S1`: the Activity in the experiment on INS1 [1] is recorded as 79.76%.

With `CN1C(=O)S/C(=C/c2cccc(-c3cc(=O)c4ccccc4o3)c2)C1=O`, in the experiment on INS1 [1], the Activity came to 134.9%. On to `CCN1C(=O)S/C(=C/c2cccc(-c3cc(=O)c4ccccc4o3)c2)C1=O`, for which the Activity in the experiment on INS1 [1] turned out to be 299%. On the same count and under the same terms, the result for `O=C1NC(=O)/C(=C\c2cccc(-c3cc(=O)c4ccccc4o3)c2)N1` reads 103.3%; that for `CN1C(=O)/C(=C\c2cccc(-c3cc(=O)c4ccccc4o3)c2)N(C)C1=O`, 218.3%. Same read-out and setting: the result for `CCN1C(=O)N/C(=C/c2cccc(-c3cc(=O)c4ccccc4o3)c2)C1=O` reads 167.8%; that for `O=C1NC(=S)N/C1=C/c1cccc(-c2cc(=O)c3ccccc3o2)c1`, 247.1%; that for `CN1C(=O)/C(=C\c2cccc(-c3cc(=O)c4ccccc4o3)c2)N(C)C1=S`, 102.8%. On the same count and under the same terms, the result for `CCN1C(=O)/C(=C\c2cccc(-c3cc(=O)c4ccccc4o3)c2)NC1=S` reads 129.6%; that for `O=C1NC(=O)C(Cc2ccc(-c3cc(=O)c4ccccc4o3)cc2)S1` (stereo not drawn), 135.5%.

Take `CN1C(=O)S/C(=C\c2ccc(-c3cc(=O)c4ccccc4o3)cc2)C1=O`: the Activity in the experiment on INS1 [1] worked out at 145.1%. As to `CCN1C(=O)S/C(=C\c2ccc(-c3cc(=O)c4ccccc4o3)cc2)C1=O`, the Activity in the experiment with INS1 [1] turned out to be 117.9%.

For `O=C1NC(=O)/C(=C/c2ccc(-c3cc(=O)c4ccccc4o3)cc2)N1`, the Activity in the experiment with INS1 [1] is listed as 105.1%. The same measure, in the same setting: the result for `CN1C(=O)/C(=C/c2ccc(-c3cc(=O)c4ccccc4o3)cc2)N(C)C1=O` reads 103.4%; that for `CCN1C(=O)/C(=C/c2ccc(-c3cc(=O)c4ccccc4o3)cc2)N(CC)C1=O`, 127.1%; that for `O=C1NC(=O)/C(=C/c2ccc(-c3cc(=O)c4ccccc4o3)cc2)S1`, 55.7%. For `OC[C@H]1OC(O)[C@H](O)[C@@H](O)[C@@H]1O` (stereo partly drawn) [DEXTROSE], in the experiment with INS1 [2], the Activity is given as 100%. Regarding `COc1ccc(Cl)cc1C(=O)NCCc1ccc(S(=O)(=O)NC(=O)NC2CCCCC2)cc1` [GLYBURIDE], in the experiment on INS1 [3], the Activity amounted to 210.4%.

In the case of `CN(CCOc1ccc(CC2SC(=O)NC2=O)cc1)c1ccccn1` (stereo not drawn) [ROSIGLITAZONE], the Activity in the experiment with INS1 [4] came out at 116%.

Values taken from ChEMBL document CHEMBL3045985, “Three-dimensional common-feature hypotheses for hypoglycemic flavonyl-2,4-thiazolidinedione derivatives” (2010).
